“And” between values parts separate entries of the source, which are not always exact repeats. Equal values may be shown once. “Also recorded” adds a separate entry of the source. Read-outs that look alike come from different tables or passages of the source.
Assays:
[1] = system: HCC827; type: cell-based
Experimental: (§1) Drug sensitivity was determined by a modified MTS assay with CellTiter 96 AQueous One Solution Reagent (Promega, Madison, WI). Cells were generally seeded on 96-well plates at a density that would yield 80% confluence by the completion of the experiment, varying by each cell line from 3000 to 4000 per well. […] After that, MTS dye was added to each well. The cultures were incubated for another 1 hour at 37°C in a humidified atmosphere with 5% CO2. Optical densities of samples were measured at 490 nm using Immuno Mini NJ-2300 (Nalge Nunc International KK, Rochester, NY). Mean optical density at each drug concentration was calculated after discarding the highest and lowest values. […] IC50 values were expressed as mean and standard deviations. The assays were repeated until the standard deviation became less than the mean.

[2] = system: HEK-293T with mutant EGFR (L858R); type: cell-based
Experimental: as §1

[3] = system: phospho-IGF-IR; experiment: Western blotting, IGF-IR phosphorylation in NSCLC cell lines; type: cell-based; conditions: up to a concentration of 5 μM; PC-9, HCC827, NCI-H1975, RPC-9, NCI-H1299, NCI-H1819
Experimental: Next, they were washed out with cold PBS and lysed in 1 × cell lysis buffer [20 mM Tris-HCl (pH 7.5), 150 mM NaCl, 1 mM Na2EDTA, 1 mM EGTA, 1% Triton, 2.5 mM sodium pyrophosphate, 1 mM beta-glycerophosphate, 1 mM Na3VO4, 1 μg/ml leupeptin] (Cell signaling Technology) supplemented with Complete, Mini (Roche, Basel, Switzerland) to extract protein. After the protein concentration was measured, equal amounts of total protein (30 μg) were separated by SDS-PAGE and transferred to PVDF membranes. The proteins on membranes were incubated overnight at 4°C with the primary antibodies. The following secondary antibodies were used: goat antirabbit or antimouse IgG-conjugated horseradish peroxidase (HRP) (Santa Cruz Biotechnology, Santa Cruz, CA). To detect specific signals, the membranes were incubated by ECL plus Western Blotting Detection Reagents (Amersham Biosciences UK Limited, Buckinghamshire, UK).

[4] = Body weight / side effects in xenograft mice; type: in vivo, BALB/c-nu/nu female nude mice; conditions: 14 days, nude mice with xenografts
Experimental: In this experiment, we used BALB/c-nu/nu female nude mice at 4–6 weeks of age that were purchased from Charles River Laboratories Japan, Inc (Yokohama, Japan). They were maintained under specific-pathogen-free conditions in accordance with the guidelines of the Animal Care and Use Committee at Okayama University. […] Every three days, body weight of the mice and the major axis and minor axis of each tumor were measured and calculated tumor volume using the following formula; (major axis) × (minor axis)^2 × 1/2 [37, 38]. For the 14 days, tumor volume, tumor growth rate and the body weight were analyzed as an average of the each group.

[5] = system: Pyk2; set-up: method as in earlier work; conditions: updated data; cited from earlier work
[6] = system: ZAP-70; set-up: method as in earlier work; conditions: updated data; cited from earlier work
[7] = system: Flt-3; set-up: method as in earlier work; conditions: updated data; cited from earlier work
[8] = system: c-Kit; set-up: method as in earlier work; conditions: updated data; cited from earlier work
[9] = system: PDGFR; set-up: method as in earlier work; conditions: updated data; cited from earlier work
[10] = system: Tek; set-up: method as in earlier work; conditions: updated data; cited from earlier work
[11] = system: Ret (M918T); set-up: method as in earlier work; conditions: updated data; cited from earlier work
[12] = system: ALK; conditions: updated data; cited from earlier work
[13] = system: BRAF (V600E); set-up: method as in earlier work; conditions: updated data; cited from earlier work
[14] = system: PKA; set-up: method as in earlier work; conditions: updated data; cited from earlier work
[15] = system: PC-9; experiment: MTS assay, PC-9
[16] = system: A549; experiment: MTS assay, A549
[17] = system: RPC-9; experiment: MTS assay, RPC-9
[18] = system: Calu-3; experiment: MTS assay, Calu-3
[19] = system: SK-BR-3; experiment: MTS assay, SK-BR-3
[20] = system: NCI-H838; experiment: MTS assay, NCI-H838
[21] = system: NCI-H1299; experiment: MTS assay, NCI-H1299

For `CNC(=O)c1ccccc1Nc1nc(Nc2ccc(N3CCOCC3)cc2OC)ncc1Cl` [TAE226], the IC50 ([1]; HCC827, EGFR Exon 19 del (E746-A750), MTS, TAE226 48 hours, gefitinib 72 hours, read-out: IC50 (μM) (mean ± SD)) was 0.086 ± 0.01 µM, the IC50 ([1]; HCC827, independent MTS assays, read-out: each IC50) was 0.061 µM and 0.095 µM and 0.09 µM and 0.1 µM and the IC50 ([2]; HEK293T-L858R, independent MTS assays, read-out: each IC50) was 0.43 µM. The IC50 ([2]; Transfected HEK-293T, mutant EGFR (L858R), MTS, TAE226 48 hours, gefitinib 72 hours, read-out: IC50 (μM) (mean ± SD)) was 0.41 ± 0.06 µM, the “phosphorylation of IGF-IR (Tyr1131)” value [3] was “not significantly inhibited; also recorded: not suppressed” and the “obvious side effects, including the loss of body weight” value ([4]; 30mg/kg or 60mg/kg oral) was “did not occur”. For the same compound, the body weight ([4]; 90 mg/kg oral) was “loss of body weight was observed”, the IC50 [5] was 0.04 µM and the IC50 [6] was 7.7 µM. For the same compound, the IC50 [7] was […], the IC50 [8] was over 10 µM and the IC50 [9] was 2.6 µM. The IC50 [10] was 0.58 µM, the IC50 [11] was […] and the IC50 [12] was […]. The IC50 [13] was 1.4 µM, the IC50 [14] was over 10 µM and the IC50 ([15]; read-out: IC50 (μM) (mean ± SD), PC-9, EGFR Exon 19 del (E746-A750), MTS, TAE226 48 hours, gefitinib 72 hours) was 0.16 ± 0.01 µM. For the same compound, the IC50 ([15]; read-out: each IC50, PC-9, independent MTS assays) was […], the IC50 ([15]; read-out: mean IC50, PC-9, mean of independent MTS assays) was 0.16 µM and the IC50 ([16]; read-out: IC50 (μM) (mean ± SD), A549, KRAS Codon 12 (G12S), MTS, TAE226 48 hours, gefitinib 72 hours) was 1.4 ± 0.05 µM. The IC50 ([16]; read-out: each IC50, A549, independent MTS assays) was 1.4 µM and 1.3 µM, the IC50 ([16]; read-out: mean IC50, A549, mean of independent MTS assays) was 1.4 µM and the IC50 ([17]; read-out: IC50 (μM) (mean ± SD), RPC-9, EGFR Exon 19 del (E746-A750) + T790M, MTS, TAE226 48 hours, gefitinib 72 hours) was 0.31 ± 0.03 µM. The IC50 ([17]; read-out: each IC50, RPC-9, independent MTS assays) was 0.35 µM and 0.33 µM and 0.28 µM and 0.27 µM, the IC50 ([18]; read-out: IC50 (μM) (mean ± SD), Calu-3, HER2 amplification, MTS, TAE226 48 hours, gefitinib 72 hours) was 4.1 ± 0.37 µM and the IC50 ([18]; read-out: each IC50, Calu-3, independent MTS assays) was 4.5 µM and 3.8 µM. The IC50 ([19]; read-out: IC50 (μM) (mean ± SD), SK-BR-3 (breast cancer), HER2 amplification, MTS, TAE226 48 hours) was 35.1 ± 0.53 µM, the IC50 ([19]; read-out: each IC50, SK-BR-3, independent MTS assays) was 34.6 µM and 35.6 µM and the IC50 ([20]; read-out: IC50 (μM) (mean ± SD), NCI-H838, no alterations, MTS, TAE226 48 hours, gefitinib 72 hours) was 6.2 ± 0.02 µM. The IC50 ([20]; read-out: each IC50, NCI-H838, independent MTS assays) was 6.3 µM and 6.2 µM, the IC50 ([20]; read-out: mean IC50, NCI-H838, mean of independent MTS assays) was 6.2 µM and the IC50 ([21]; read-out: IC50 (μM) (mean ± SD), NCI-H1299, no alterations, MTS, TAE226 48 hours, gefitinib 72 hours) was 2.8 ± 0.26 µM. For the same compound, the IC50 ([21]; read-out: each IC50, NCI-H1299, independent MTS assays) was 3.1 µM and 3 µM and 2.7 µM and 2.4 µM.
